Results as given in PubChem BioAssay (NCI).
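Dose response: 5 concentrations. Exposure: 48 h. Format: 96-well plates. Endpoint: linear interpolation; highest concentration if not reached. At the GI50, growth is halved. TGI: concentration producing complete growth inhibition.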

Assays:
Assay in all cases: growth of human tumour cells (NCI), 48 h
NCI/ADR-RES ovarian = tested on: NCI/ADR-RES ovarian
IGROV1 ovarian = tested on: IGROV1 ovarian
MDA-MB-231 breast = tested on: MDA-MB-231 breast
HOP-62 NSCLC = tested on: HOP-62 NSCLC
DU-145 prostate = tested on: DU-145 prostate
HCT-116 colon = tested on: HCT-116 colon
MDA-N = tested on: MDA-N
HCC-2998 colon = tested on: HCC-2998 colon
MALME-3M melanoma = tested on: MALME-3M melanoma
ACHN renal = tested on: ACHN renal
M14 melanoma = tested on: M14 melanoma
RPMI-8226 leukemia = tested on: RPMI-8226 leukemia
CAKI-1 renal = tested on: CAKI-1 renal
HL-60(TB) leukemia = tested on: HL-60(TB) leukemia
OVCAR-8 ovarian = tested on: OVCAR-8 ovarian
TK-10 renal = tested on: TK-10 renal
PC-3 prostate = tested on: PC-3 prostate
HCT-15 colon = tested on: HCT-15 colon
RXF 393 renal = tested on: RXF 393 renal
SR leukemia = tested on: SR leukemia
SF-539 CNS = tested on: SF-539 CNS
SK-OV-3 ovarian = tested on: SK-OV-3 ovarian
SK-MEL-28 melanoma = tested on: SK-MEL-28 melanoma
SF-268 CNS = tested on: SF-268 CNS
HT29 colon = tested on: HT29 colon
SW-620 colon = tested on: SW-620 colon
786-0 renal = tested on: 786-0 renal
MOLT-4 leukemia = tested on: MOLT-4 leukemia
SNB-19 CNS = tested on: SNB-19 CNS
NCI-H460 lung = tested on: NCI-H460 lung
OVCAR-5 ovarian = tested on: OVCAR-5 ovarian
SF-295 CNS = tested on: SF-295 CNS
UACC-257 melanoma = tested on: UACC-257 melanoma
U251 CNS = tested on: U251 CNS
UO-31 renal = tested on: UO-31 renal
EKVX NSCLC = tested on: EKVX NSCLC
SK-MEL-5 melanoma = tested on: SK-MEL-5 melanoma
K-562 leukemia = tested on: K-562 leukemia
UACC-62 melanoma = tested on: UACC-62 melanoma
A498 renal = tested on: A498 renal
CCRF-CEM leukemia = tested on: CCRF-CEM leukemia
COLO 205 colon = tested on: COLO 205 colon
A549 NSCLC = tested on: A549 NSCLC
MDA-MB-435 = tested on: MDA-MB-435
SK-MEL-2 melanoma = tested on: SK-MEL-2 melanoma
OVCAR-3 ovarian = tested on: OVCAR-3 ovarian
SNB-75 CNS = tested on: SNB-75 CNS
T-47D breast = tested on: T-47D breast
KM12 colon = tested on: KM12 colon
BT-549 breast = tested on: BT-549 breast
MCF7 breast = tested on: MCF7 breast
SN12C renal = tested on: SN12C renal
NCI-H23 lung = tested on: NCI-H23 lung
LOX IMVI melanoma = tested on: LOX IMVI melanoma
OVCAR-4 ovarian = tested on: OVCAR-4 ovarian
HOP-92 NSCLC = tested on: HOP-92 NSCLC
NCI-H226 lung = tested on: NCI-H226 lung
NCI-H522 lung = tested on: NCI-H522 lung

C/C=C1\C(=O)O[C@H]2C/C(C)=C/CC/C(C)=C/CC[C@@]3(C)O[C@@H]3C[C@@H]12
TGI (NCI/ADR-RES ovarian): > 100000 nM
TGI (IGROV1 ovarian): > 100000 nM
TGI (MDA-MB-231 breast): > 100000 nM
TGI (HOP-62 NSCLC): > 100000 nM
TGI (DU-145 prostate): > 100000 nM
TGI (HCT-116 colon): > 100000 nM
TGI (MDA-N): > 100000 nM
TGI (HCC-2998 colon): > 100000 nM
TGI (MALME-3M melanoma): > 100000 nM
TGI (ACHN renal): > 100000 nM
TGI (M14 melanoma): > 100000 nM
TGI (RPMI-8226 leukemia): > 100000 nM
TGI (CAKI-1 renal): > 100000 nM
TGI (HL-60(TB) leukemia): > 100000 nM
TGI (OVCAR-8 ovarian): > 100000 nM
TGI (TK-10 renal): > 100000 nM
TGI (PC-3 prostate): > 100000 nM
TGI (HCT-15 colon): > 100000 nM
TGI (RXF 393 renal): > 100000 nM
TGI (SR leukemia): > 100000 nM
TGI (SF-539 CNS): > 100000 nM
TGI (SK-OV-3 ovarian): > 100000 nM
TGI (SK-MEL-28 melanoma): > 100000 nM
TGI (SF-268 CNS): > 100000 nM
TGI (HT29 colon): > 100000 nM
TGI (SW-620 colon): > 100000 nM
TGI (786-0 renal): > 100000 nM
TGI (MOLT-4 leukemia): > 100000 nM
TGI (SNB-19 CNS): > 100000 nM
TGI (NCI-H460 lung): > 100000 nM
TGI (OVCAR-5 ovarian): > 100000 nM
TGI (SF-295 CNS): > 100000 nM
TGI (UACC-257 melanoma): > 100000 nM
TGI (U251 CNS): > 100000 nM
TGI (UO-31 renal): > 100000 nM
TGI (EKVX NSCLC): > 100000 nM
TGI (SK-MEL-5 melanoma): > 100000 nM
TGI (K-562 leukemia): > 100000 nM
TGI (UACC-62 melanoma): > 100000 nM
TGI (A498 renal): > 100000 nM
TGI (CCRF-CEM leukemia): > 100000 nM
TGI (COLO 205 colon): > 100000 nM
TGI (A549 NSCLC): > 100000 nM
TGI (MDA-MB-435): > 100000 nM
TGI (SK-MEL-2 melanoma): > 100000 nM
TGI (OVCAR-3 ovarian): > 100000 nM
TGI (SNB-75 CNS): > 100000 nM
TGI (T-47D breast): > 100000 nM
TGI (KM12 colon): > 100000 nM
TGI (BT-549 breast): > 100000 nM
TGI (MCF7 breast): > 100000 nM
TGI (SN12C renal): > 100000 nM

C=CCc1cccc2cc(C(N)=O)c(=N)oc12
TGI (NCI/ADR-RES ovarian): > 100000 nM
TGI (IGROV1 ovarian): 90300 nM
TGI (MDA-MB-231 breast): > 100000 nM
TGI (HOP-62 NSCLC): > 100000 nM
TGI (DU-145 prostate): > 100000 nM
TGI (HCT-116 colon): > 100000 nM
TGI (NCI-H23 lung): > 100000 nM
TGI (MDA-N): > 100000 nM
TGI (HCC-2998 colon): > 100000 nM
TGI (ACHN renal): > 100000 nM
TGI (M14 melanoma): > 100000 nM
TGI (RPMI-8226 leukemia): > 100000 nM
TGI (CAKI-1 renal): > 100000 nM
TGI (HL-60(TB) leukemia): > 100000 nM
TGI (OVCAR-8 ovarian): > 100000 nM
TGI (PC-3 prostate): > 100000 nM
TGI (HCT-15 colon): > 100000 nM
TGI (LOX IMVI melanoma): > 100000 nM
TGI (RXF 393 renal): > 100000 nM
TGI (SR leukemia): > 100000 nM
TGI (SK-OV-3 ovarian): > 100000 nM
TGI (SK-MEL-28 melanoma): > 100000 nM
TGI (HT29 colon): > 100000 nM
TGI (SW-620 colon): > 100000 nM
TGI (786-0 renal): > 100000 nM
TGI (OVCAR-4 ovarian): > 100000 nM
TGI (MOLT-4 leukemia): > 100000 nM
TGI (SNB-19 CNS): > 100000 nM
TGI (NCI-H460 lung): > 100000 nM
TGI (OVCAR-5 ovarian): > 100000 nM
TGI (UACC-257 melanoma): > 100000 nM
TGI (U251 CNS): > 100000 nM
TGI (SK-MEL-5 melanoma): > 100000 nM
TGI (UACC-62 melanoma): > 100000 nM
TGI (A498 renal): > 100000 nM
TGI (HOP-92 NSCLC): > 100000 nM
TGI (CCRF-CEM leukemia): > 100000 nM
TGI (NCI-H226 lung): > 100000 nM
TGI (COLO 205 colon): > 100000 nM
TGI (A549 NSCLC): > 100000 nM
TGI (MDA-MB-435): > 100000 nM
TGI (SK-MEL-2 melanoma): > 100000 nM
TGI (OVCAR-3 ovarian): > 100000 nM
TGI (SNB-75 CNS): > 100000 nM
TGI (T-47D breast): > 100000 nM
TGI (KM12 colon): > 100000 nM
TGI (BT-549 breast): > 100000 nM
TGI (SN12C renal): > 100000 nM

CC1OC(OC2C(O)CC(OC3C(O)CC(OC4CCC5(C)C(CCC6C5CCC5(C)C(C7=CC(=O)OC7)CCC65O)C4)OC3C)OC2C)CC(O)C1O (stereo unspecified)
TGI (NCI/ADR-RES ovarian): 293 nM
TGI (IGROV1 ovarian): 542 nM
TGI (MDA-MB-231 breast): 786 nM
TGI (HOP-62 NSCLC): 41.7 nM
GI50 (DU-145 prostate): < 12 nM
TGI (DU-145 prostate): < 20.4 nM
GI50 (HCT-116 colon): 11 nM
TGI (HCT-116 colon): 100 nM
TGI (NCI-H23 lung): 51.7 nM
TGI (MDA-N): 138 nM
TGI (HCC-2998 colon): 584 nM
TGI (MALME-3M melanoma): 75.6 nM
TGI (ACHN renal): 106 nM
GI50 (M14 melanoma): 95.6 nM
TGI (M14 melanoma): 268 nM
TGI (RPMI-8226 leukemia): 1470 nM
TGI (CAKI-1 renal): 52.7 nM
GI50 (HL-60(TB) leukemia): 45.1 nM
TGI (HL-60(TB) leukemia): 415 nM
GI50 (OVCAR-8 ovarian): < 18.7 nM
TGI (OVCAR-8 ovarian): 70.8 nM
TGI (TK-10 renal): 87.6 nM
TGI (PC-3 prostate): 170 nM
TGI (HCT-15 colon): 86.7 nM
GI50 (LOX IMVI melanoma): < 12.1 nM
TGI (LOX IMVI melanoma): 58.7 nM
TGI (RXF 393 renal): 78.5 nM
TGI (SF-539 CNS): 21.9 nM
TGI (SK-OV-3 ovarian): 143 nM
TGI (SK-MEL-28 melanoma): 423 nM
TGI (SF-268 CNS): 61.4 nM
TGI (HT29 colon): 123 nM
TGI (SW-620 colon): 282 nM
GI50 (786-0 renal): < 12.4 nM
TGI (786-0 renal): 21.9 nM
GI50 (MOLT-4 leukemia): 165 nM
TGI (SNB-19 CNS): 304 nM
GI50 (NCI-H460 lung): < 11.6 nM
TGI (NCI-H460 lung): < 18.7 nM
TGI (OVCAR-5 ovarian): 148 nM
TGI (SF-295 CNS): 99.8 nM
TGI (UACC-257 melanoma): 219 nM
GI50 (U251 CNS): < 17.7 nM
TGI (U251 CNS): 46.7 nM
TGI (UO-31 renal): 151 nM
TGI (EKVX NSCLC): 80.9 nM
TGI (SK-MEL-5 melanoma): 62.4 nM
TGI (K-562 leukemia): 204 nM
TGI (UACC-62 melanoma): 152 nM
GI50 (A498 renal): < 10 nM
TGI (A498 renal): 30.1 nM
TGI (HOP-92 NSCLC): 190 nM
TGI (NCI-H226 lung): 174 nM
TGI (COLO 205 colon): 142 nM
TGI (A549 NSCLC): 29.5 nM
TGI (MDA-MB-435): 147 nM
TGI (SK-MEL-2 melanoma): 447 nM
TGI (NCI-H522 lung): 22.4 nM
TGI (OVCAR-3 ovarian): 48.5 nM
TGI (SNB-75 CNS): 653 nM
GI50 (T-47D breast): 56 nM
TGI (T-47D breast): 1730 nM
TGI (KM12 colon): 209 nM
TGI (BT-549 breast): 61.8 nM
TGI (MCF7 breast): > 100000 nM
TGI (SN12C renal): 130 nM
